Results on 1 compound are retold here after patent US6610860B2, “C7 ester substituted taxanes” (FSU Research Foundation, Inc., priority 2000, dated 2003).

In the test the test system is HCT116 cells. The experiment in a line: In vitro cytotoxicity measured by the cell colony formation assay. It counts as cell-based. Conditions: 72 h drug incubation, colonies counted after 7 days, ID50 = drug concentration producing 50% inhibition of colony formation, read-out: IN VITRO ID 50 (nm) HCT116. As for the experimental part: In Vitro Cytotoxicity Measured by the Cell Colony Formation Assay
Four hundred cells (HCT116) were plated in 60 mm Petri dishes containing 2.7 mL of medium (modified McCoy's 5a medium containing 10% fetal bovine serum and 100 units/mL penicillin and 100 µg/mL streptomycin). The cells were incubated in a CO2 incubator at 37° C. for 5 h for attachment to the bottom of Petri dishes. The compounds identified in Example 2 were made up fresh in medium at ten times the final concentration, and then 0.3 mL of this stock solution was added to the 2.7 mL of medium in the dish. The cells were then incubated with drugs for 72 h at 37° C. At the end of incubation the drug-containing media were decanted, the dishes were rinsed with 4 mL of Hank's Balance Salt Solution (HBSS), 5 mL of fresh medium was added, and the dishes were returned to the incubator for colony formation. The cell colonies were counted using a colony counter after incubation for 7 days.

Structures are written as SMILES.

Consider `CC(=O)O[C@H]1C(=O)[C@@]2(C)[C@H]([C@H](OC(=O)c3ccccc3)[C@]3(O)C[C@H](OC(=O)[C@H](O)[C@@H](NC(=O)c4ccccc4)c4ccccc4)C(C)=C1C3(C)C)[C@]1(OC(C)=O)CO[C@@H]1C[C@@H]2O` [taxol], for which the IC50 came to 2.1 nM.
